This note sets out measurements from patent publication US20120107398A1, “PHARMACEUTICAL COMPOSITIONS” (BOEHRINGER INGELHEIM INTERNATIONAL GMBH, priority 2010, published 2012).

Structures are written as SMILES. Counter-ions that a name gives are not always drawn.

This series in a line: Solubility of pioglitazone hydrochloride. The class given is physicochemical. The procedure:
For pioglitazone hydrochloride the intrinsic dissolution rates in aqueous media are only above 1000 μg/cm^2/min at pH 1, whereas for less acidic solutions (e.g. pH 2) the intrinsic dissolution rates are below 100 μg/cm^2/min. Therefore, the intrinsic dissolution rate of pioglitazone hydrochloride may be rate limiting for dissolution/absorption of the composition and pose an additional risk for providing similar dissolution profiles of pioglitazone hydrochloride in the composition to the original mono tablets (e.g. Actos) or combination market tablets (e.g. Duetact, Competact) and/or for matching bioequivalence with the original mono or combination market tablets.

Regarding `CCc1ccc(CCOc2ccc(CC3SC(=O)NC3=O)cc2)nc1` (stereo not drawn) [pioglitazone hydrochloride], for the setting “strongly acidic media”, the “solubility in strongly acidic media” value is reported as “slightly better solubility”. Moreover, the solubility in water result (water) is recorded as “practically insoluble”. The “solubility in weak acidic and neutral to basic media” value (weak acidic and neutral to basic media) is given as “very poor solubility”.
